Data taken from patent publication US20060046976A1, “Method for increasing the bone mineral density and bone micro-architecture or connectivity of a mammal using N-acylated glucosamines” (priority 2004, published 2006).

Key:
[1] = tested on: SCW-arthritis rats; experiment: Three-dimensional isosurface of tibia (bone erosion), SCW-arthritis rats; type: in vivo, Lewis type rats; details: GlcNBu treated, especially high dose
From the text: (§1) In this experiment performed and described herein, there were four groups of Lewis type rats, consisting of eight (8) animals in each group. Lewis type rats had experimental arthritis induced by a single intra-peritoneal injection of streptococcal cell wall antigen (SCW). This type of arthritis has an acute and chronic phase and affects mostly the distal joints in the hind limbs of the animals, and, less so, the knees and hips. Groups 1-3, inclusive, had inflammatory arthritis induced. The compound used in the experiment was used to supplement normal rat chow feed on a daily basis. Feed and water were unrestricted. […] All the dissected femurs and tibiae were scanned with dual energy x-ray absorptiometry (DXA) were measured at the distal femur, and proximal tibia using a user defined region of interest (ROI). • Micro-CT imaging protocol. […] The reconstructed tibia images were analyzed with MicroView 2.0 software (GE Healthcare, London, ON) in two and three dimensions. • Three-dimensional trabecular bone measurements. […] On 3D analysis, the tissue volume (3D-TV, mm3) and trabecular bone volume (3D-BV, mm3) were measured directly, and the fractional trabecular bone volume (3D-BV/TV, %) was calculated. […]

[2] = tested on: SCW-arthritis rats; experiment: BMD by DXA of femurs and tibias in SCW-arthritis rats; type: in vivo, Lewis type rats; details: 6 weeks
From the text: as §1, with “unrestricted. Group I feed was supplemented with the compound shown in formula II, abbreviated as GlcNBu, at a dose of 200mg/kg/day.” for “unrestricted.”

CCCC(=O)N[C@H]1C(O)O[C@H](CO)[C@@H](O)[C@@H]1O (stereo partly drawn) [GlcNBu, N-butyryl-D-glucosamine]
bone erosion at the joint margin (isosurfaces) [1]: effectively protects bone from further erosion | BMD femurs and tibias, Group I (GlcNBu 200 mg) vs Group 3 (GlcNBu 20 mg) ([2]; 200 mg/kg/day in feed): much greater | BMD differences between Group 1 (GlcNBu 200 mg) and other Groups ([2]; 200 mg/kg/day): Statistical significance of the differences was achieved
